Key:
Type in all cases: biochemical
[1] = system: pooled human citrated plasma; assay: Prothrombin time (PT) clotting assay with Innovin
Protocol: (§1) The experiments here below were performed with pooled human citrated plasma which was made from a minimum of individual contributions of 6 apparently healthy volunteers. Blood was collected ( 9 vol blood/ 1 volume 0.11 M citrate) in tubes and mixed directly after withdrawal. The Blood was cooled by submersion in ice water and centrifuged in a cooled, swing-out centrifuge for at least 20 minutes at 2000 x g. Subsequently, plasma was carefully separated from the cells and collected in an intermediate , cooled plastic tube. The collected plasma was mixed and centrifuged similarly after which platelet-poor-plasma was collected, aliquoted and after snap-freezing stored at -60 °C or below.
(§2) Different PT assays were used using PT assays commercially available as Simplastin excel S (BioMerieux), Innovin (Dade Behring), Neoplastin CI plus (Stago), Recombiplastin (Instrumentation Laboratories) and Thromborel S (Dade Behring). In each case The reagent consisted of Tissue factor, lipid and CaCl2. Tests were performed in a clotting analyser (AMAX Destiny, Kordia Lifesciences, Leiden, NL). In each case a cuvette was filled with 100 µl plasma and incubated for 1 minute at 37 °C. Pre-warmed PT reagent was added (200 µl) and recording of clotting was started. The AMAX recorded blood clotting by reduction in speed of a turning rod (mechanical detection).
(§3) For spiking experiments with rivaroxaban (Xarelto, from Bayer), the plasma sample was spiked with rivaroxaban at different concentrations between […], and the clotting times were again recorded using the different PT reagents. The results are plotted in Figure 1.

[2] = system: pooled human citrated plasma; assay: Prothrombin time (PT) clotting assay with Simplastin excel S; design: Rivaroxaban-prolonged PT / Ratio range: dose or concentration left out as unconfirmed
Protocol: as §1, §2, §3

[3] = system: pooled human citrated plasma; assay: Prothrombin time (PT) clotting assay with Neoplastin CI plus
Protocol: as §1, §2, §3

[4] = system: pooled human citrated plasma; assay: Prothrombin time (PT) clotting assay with Thromborel S
Protocol: as §1, §2, §3

[5] = system: pooled human citrated plasma; assay: Prothrombin time (PT) clotting assay with Simplastin Excel
Protocol: as §1, §2, §3
(§4) Example 1a was repeated with PT clotting assays Thromboplastin S (Biopool, through Trinity),PT fibrinogen (Instrumentation Laboratories), PT fibrinogen recombinant (Instrumentation Laboratories), Thromboplastin C plus ( Siemens) and Simplastin Excel (Biomerieux).

[6] = system: pooled human citrated plasma; assay: Prothrombin time (PT) clotting assay with PT fibrinogen recombinant
Protocol: as §1, §2, §3, §4

[7] = system: pooled human citrated plasma; assay: Prothrombin time (PT) clotting assay with Thromboplastin C plus
Protocol: as §1, §2, §3, §4

[8] = system: pooled human citrated plasma; assay: PT clotting assay with Innovin in presence of RVV-V; details: Figure 2
Protocol: as §1
(§5) Different PT assays were used using PT assays commercially available as Simplastin excel S (BioMerieux), Innovin (Dade Behring), Neoplastin CI plus (Stago), Recombiplastin (Instrumentation Laboratories) and Thromborel S (Dade Behring). In each case The reagent consisted of Tissue factor, lipid and CaCl2. […] The AMAX recorded blood clotting by reduction in speed of a turning rod (mechanical detection). […]
(§6) For spiking experiments with rivaroxaban (Xarelto, from Bayer), the plasma sample was spiked with rivaroxaban at different concentrations between […], and the clotting times were again recorded using the different PT reagents. […]

[9] = system: pooled human citrated plasma; assay: Prothrombin time (PT) clotting assay with Thromboplastin S
Protocol: as §1
Different PT assays were used using PT assays commercially available as Simplastin excel S (BioMerieux), Innovin (Dade Behring), Neoplastin CI plus (Stago), Recombiplastin (Instrumentation Laboratories) and Thromborel S (Dade Behring). In each case The reagent consisted of Tissue factor, lipid and CaCl2. […] The AMAX recorded blood clotting by reduction in speed of a turning rod (mechanical detection).
as §6

[10] = system: pooled human citrated plasma; assay: PT clotting assay with Simplastin Excel S in presence of RVV-V; details: RVV-V added prior to the clotting experiment, Figure 2
Protocol: as §1, §5, §6

[11] = system: pooled human citrated plasma; assay: Prothrombin time (PT) clotting assay with Recombiplastin
Protocol: as §1, §2, §3

[12] = system: pooled human citrated plasma; assay: Prothrombin time (PT) clotting assay with PT fibrinogen
Protocol: as §1, §2, §3, §4

[13] = 200 ng/ml rivaroxaban spiked in plasma
[14] = 600 ng/ml rivaroxaban spiked in plasma
[15] = PT ratio compared to reference value ("0"), up to 600 ng/ml rivaroxaban

O=C(NC[C@H]1CN(c2ccc(N3CCOCC3=O)cc2)C(=O)O1)c1ccc(Cl)s1 [rivaroxaban, Rivaroxaban]
Prothrombin time [1, 13]: 12.0 s
Prothrombin time [1, 14]: 17.1 s
Ratio range [1, 15]: 1.0- 1.8
Change in PT for rivaroxaban ([1]; without RVV-V, Figure 2): no significant change in PT
Sensitivity of PT assay for rivaroxaban ([2]; Simplastin Excel S and/or Triniclot Excel S, within the therapeutic range (ratio window 2 - 5)): high sensitivity
Rivaroxaban-prolonged PT ([2]; Simplastin Excel S, without RVV-V, 200 -): 80 s
Prothrombin time ([2]; Simplastin excel S, 200 µg/ml rivaroxaban spiked in plasma): 41.0 s
Ratio range ([2]; Simplastin excel S, PT ratio compared to reference value ("0"), up): 1.0-5.0
Prothrombin time ([2]; Simplastin excel S, spiked in plasma): 80.8 s
Prothrombin time [3, 13]: 20.0 s
Prothrombin time [3, 14]: 35.0 s
Ratio range [3, 15]: 1.0-2.6
Prothrombin time [4, 13]: 21.1 s
Prothrombin time [4, 14]: 26.7 s
Ratio range [4, 15]: 1.0-1.7
Prothrombin time [5, 13]: 40.0 s
Prothrombin time [5, 14]: 63.1 s
Ratio range [5, 15]: 1.0-3.1
Prothrombin time [6, 13]: 32.9 s
Prothrombin time [6, 14]: 45.4 s
Ratio range [6, 15]: 1.0-1.9
Prothrombin time [7, 13]: 44.3 s
Prothrombin time [7, 14]: 73.5 s
Ratio range [7, 15]: 1.0-3.1
Change in PT for rivaroxaban [8]: no significant change in PT
Prothrombin time [9, 14]: 51.6 s
Ratio range [9, 15]: 1.0-2.4
Effect of RVV-V on prolonged PT [10]: completely vanished
Prothrombin time [11, 13]: 16.8 s
Prothrombin time [11, 14]: 26.2 s
Ratio range [11, 15]: 1.0-2.5
Prothrombin time [12, 13]: 38.5 s
Prothrombin time [12, 14]: 62.7 s
Ratio range [12, 15]: 1.0-2.8

Source: patent EP2405274A1, “Monitoring anticoagulant therapy and identifying reversible direct factor Xa inhibitors” (Good biomarker Sciences B.V., priority 2010, dated 2012)
